Literature values, collected in patent publication US20210061712A1, “COMPOSITE STRUCTURAL MATERIAL COMPOSITIONS RESISTANT TO BIODEGRADATION” (The University of British Columbia, priority 2018, published 2021).
Where two headings read alike, the source gives them in different places.

How the values were obtained:
[1] = test system: Desulfovibrio desulfricans strain; conditions: pipe's internal wall coated with the oxide in epoxy

silver oxide
bacterial corrosion of concrete pipe [1]: reduce the bacterial corrosion

[Na+].[Na+].[O]=[W](=[O])([O-])[O-] [sodium tungstate]
growth of A. thiooxidans cells (A. Thiooxidans cells): completely inhibits the growth

[Zn+2] [Zn]
activity of SRB species (SRB species; 20 mg/L): reduced

O=CCCCC=O [glutaraldehyde]
activity of SRB species (SRB species; 10 mg/L): reduced

[Cu+2] [Cu]
activity of SRB species (SRB species; 20 mg/L): reduced
